compound,measurement,value
"C(=C\c1nc(COc2ccc(CCCn3cncn3)cc2)co1)/c1ccccc1 [Reference Example 3, 1-[3-[4-[2-[(E)-2-phenylethenyl]-4-oxazolylmethoxy]phenyl]propyl]-1,2,4-triazole]",melting point,108 to 109 °C
